Data published in patent US20260137807A1, “COMPOSITIONS AND METHODS FOR DELIVERING A MACROMOLECULE TO A CELL” (AstraZeneca AB, priority 2022, published 2026).

How the values were obtained:
HeLa Luc705 cells = assay: Splice switching activity assay (Luc705 luciferase reporter), Example 4A; format: cell-based
Description: (§1) HeLa Luc705 and Huh7 Luc705 cells were used to screen and characterize the SMC generated in Example 2 for their ability to increase levels of an SSO-induced splice variant by co-treatment of the cells with the SSO and SMC. The Luc705 reporter construct was used for quantitation of luciferase protein produced as a result of functional SSO delivery. (Kang et al. (1998) Biochemistry, 37(18):6235-6239; Rocha et al. (2016) Four Novel Splice-Switch Reporter Cell Lines: Distinct Impact of Oligonucleotide Chemistry and Delivery Vector on Biological Activity. Nucleic Acid Ther. 26(6):381). Briefly, a plasmid carrying the luciferase coding sequence interrupted by an insertion of intron 2 from β-globin pre-mRNA carrying a cryptic splice site was stably transfected into cells. Unless the aberrant slice site was masked by an antisense oligonucleotide, the pre-mRNA of luciferase was improperly processed.
(§2) HeLa Luc705 and Huh7 Luc705 cells were seeded in 96-well plates at 10,000 cells per well in growth media containing 1 μM Luc705-SSO and incubated to allow adherence and oligo internalization. After 24 hours, 10 μl of SMC diluted in Growth Media (DMEM+10% FBS) was added into each well. After 2 hours, media was removed from the wells and replaced with fresh growth media for 4 hours to allow for translation of the variant proteins. The media was then removed, and cells were lysed with 0.1% Triton-PBS.
(§3) To detect luciferase activity, 30 μL of cell lysate was transferred to white-walled 96-well plates. Luciferase intensity in each well was measured using a GloMax® 96 Microplate Luminometer machine (Promega) following auto-injection of 25 μL Luciferin substrate (Firefly Luciferase Assay System: Promega) per well. Photon measurements were acquired for 10 seconds, starting 2 seconds after injection.
(§4) To determine whether AZ4800 (Compound 2, FIG. 1B) and SSO must be present in the cell media simultaneously for Compound 2 to produce its synergistic effects, the treatment plan was modified from the UNC2383 treatment plan detailed by Wang et al. (2017) ACS Chem. Biol. 12(8):1999-2007 to include a 24 hour pre-treatment with SSO, followed by the addition of Compound 2 for two hours, followed by the removal of SSO and Compound 2, and finally a 4-hour protein translation period (FIG. 10).

Huh7 Luc705 cells = assay: as above; format: cell-based
Description: as §1, §2, §3, §4

[1] = system: Luc705 pre-mRNA in HeLa Luc705 cells; assay: RT-PCR of corrected luciferase mRNA; format: cell-based; details: with SSO, FIG. 9
Procedure: (§5) The percentage of corrected luciferase mRNA was quantified using a previously validated RT-PCR protocol. (Saher et al. (2019) Pharmaceutics. 11(12):666) Total RNA was extracted from HeLa Luc705 and Huh7 Luc705 cells using TRI Reagent (Sigma-Aldrich) according to the manufacturer's instructions.
(§6) For RT-PCR reactions using ONE STEP RT-PCR kit (QIAGEN), three nanograms of isolated RNA were utilized. The total reaction volume was 20 μL and the primer sequences used were:
(§7) The program for the RT-PCR was as follows: 55° C., 35 min, then 95° C., 15 min, for the reverse transcription step, directly followed by the PCR (94° C., 30 s, then 55° C., 30 s, then 72° C., 30 s) for 30 cycles and the final extension 72° C., 10 min. The PCR products were analyzed using a 1% agarose gel in 0.5× TAE buffer and visualized by SYBR Gold (Invitrogen, Molecular products) staining.
(§8) Versadoc imaging system with a cooled CCD camera (BioRad, Hercules, CA, USA) was used for the analysis of gels. Band intensities were analyzed with the Quantity One software (BioRad, Hercules, CA, USA). The percentage of correction was calculated using this equation (Band intensity of corrected RNA*100/(Band intensity of corrected RNA+Band intensity of uncorrected RNA).

[2] = system: Luc705 pre-mRNA in Huh7 Luc705 cells; assay: RT-PCR of corrected luciferase mRNA; format: cell-based; details: with SSO, Huh7, FIG. 9
Procedure: as §5, §6, §7, §8

mCherry-GAL9 cells = assay: mCherry-GAL9 assay in live cells for 4 hours, screening; format: cell-based; details: 5 μM (FIG. 6-8)
Procedure: Cells were subjected to a 10-point concentration dilution (0-15 μM) for 2 hours and then fixed and imaged (FIG. 3 and FIG. 4). Images were analyzed and curves were generated from both mCherry-GAL9 puncta quantitation and cell survival as determined by nuclear morphology (FIG. 5). The GAL9 recruitment response support the functional splice-switching data with SSOs, confirming the mCherry-GAL9 assay as a powerful tool for screening endosomolytic compounds and supporting the hypothesis that AZ2467 (Compound 6) and AZ4800 (Compound 2) promote SSO activity by inducing endosomal rupture. The GAL9 assay was again conducted, this time in live cells for 4 hours with select compounds for screening. Compounds were screened at 5 μM (FIG. 6-8) or 0.3125-10 μM (FIG. 35-38). FIG. 39 and FIG. 47 provide results for select compounds at various doses 0.3125-10 μM.

[3] = system: anti-CD3/28 stimulated T cells; assay: Co-delivery of Cre recombinase, ex vivo editing of T cells; format: cell-based, mice
Procedure: The combination of Cre recombinase with Compound 4 was also tested in ex vivo editing of anti-CD3/28 stimulated T cells. […], then treated with 2.5 μM of Compound 4 with varying concentrations of Cre recombinase (50, 100, 200, 500 and 1000 nM), either on a U-plate with no mixing (T1) or mixed in a tube shaker during treatment (T2).

HEK cells = assay: Co-delivery of ABE8e base editor, GFP reporter; format: cell-based; details: 50 nM ABE8e, Compound 4 concentrations above 2.5 μM, FIG. 46B
Procedure: The ABE8e base editor comprising SpCas9 D10A nickase and a modified TadA adenosine deaminase (Richter et al., Nature Biotechnol. 38:883-891 (2020)) was co-administered with Compound 4 to assess improvement in editing efficiency in an in vitro reporter system in which edited cells express GFP. […] The bar shading and lines showing total cell counts, viable cells, and edited cells are the same as in FIG. 43A.
HEK cells were co-administered with a fixed concentration (50 nM) of ABE8e and varying concentrations of AZ3327 (Compound 4). The results in FIG. 46B show greater than 90% editing efficiency at Compound 4 concentrations of above 2.5 μM.
HEK and N2a cells were co-administered with a fixed concentration (2.5 μM) of Compound 4 and varying concentrations of ABE8e.

[4] = non-activated T cells, FIG. 45A

SMILES	increase in SSO activity (HeLa Luc705 cells; 1 μM SSO, 10, 5 or 1 μM compound for 2 hours, FIG. 2A)	increase in functional SSO activity (HeLa Luc705 cells; 5 μM compound, 1 μM SSO or 100 nM SSO, FIG. 2B)	SSO activity, preload only (HeLa Luc705 cells; SSO only pre-treated, removed when compound added, FIG. 11A)	increase in SSO activity with lengthened pre-treatment (HeLa Luc705 cells; SSO pre-treatment 48 hours instead of 24, FIG. 12A)	increase in SSO activity (HeLa Luc705 cells; co-treatment up to 5 μM, plateauing after 2 hours, FIG. 11C) [fold]	SSO activity without the pre-treating step (HeLa Luc705 cells; no pre-load, FIG. 13A)	increase in SSO activity with lengthened pre-treatment (Huh7 Luc705 cells; SSO pre-treatment 48 hours instead of 24, FIG. 12B)	SSO activity without the pre-treating step (Huh7 Luc705 cells; no pre-load, FIG. 13B)	levels of splice-switching (functional mRNA) [1]	levels of splice-switching (functional mRNA) [2]	GAL9 recruitment, reason for selection for further characterization (mCherry-GAL9 cells)	editing efficiency ([3]; activated T cells, 2.5 μM compound, FIG. 45C)	proliferative capacity ([3]; activated T cells, FIG. 45C)	editing [3, 4]	proliferation rate [3, 4]	editing efficiency (HEK cells)
COc1nn(C2CCNCC2)cc1Nc1ncc(Cl)c(-n2ccc3c(C#N)cccc32)n1 [Compound 2]	substantially higher increase in SSO activity than UNC2383	increase in activity	no activity was seen	more pronounced	100	significant activity was observed	more pronounced	significant activity was observed	greater levels of splice-switching than transfection with SSO using Lipofectamine 2000	greater levels of splice-switching than transfection with SSO using Lipofectamine 2000	efficacy at shorter-term timepoints					
COc1nn(C2CCNCC2)cc1Nc1ncc(F)c(-n2ccc3c(C#N)cccc32)n1 [Compound 4]												greater than 90%	without affecting proliferative capacity	highly edited	compromised	greater than 90%
